Data as given in patent US9265253B2, “Use of macrocyclic picolinamides as fungicides” (DOW AGROSCIENCES LLC, priority 2013, dated 2016).

Tests used:
Type in all cases: in vivo
[1] = system: Rhyncosporium secalis; assay: Barley Scald (RHYNSE) disease control; conditions: Hordeum vulgare, 24 h, 1 Day Protectant, read-out: Disease Control RHYNSE 1 DP
Method: Technical grades of materials were dissolved in acetone, which were then mixed with nine volumes of water containing 110 ppm Triton X-100. The fungicide solutions were applied onto wheat seedlings using an automated booth sprayer to run-off. All sprayed plants were allowed to air dry prior to further handling. All fungicides were evaluated using the aforementioned method for their activity vs. all target diseases. Wheat leaf blotch and brown rust activity were also evaluated using track spray applications, in which case the fungicides were formulated as EC formulations, containing 0.1% Trycol 5941 in the spray solutions. Wheat plants (variety Yuma) were grown from seed in a greenhouse in 50% mineral soil/50% soil-less Metro mix until the first leaf was fully emerged, with 7-10 seedlings per pot. These plants were inoculated with an aqueous spore suspension of Septoria tritici either prior to or after fungicide treatments. After inoculation the plants were kept in 100% relative humidity (one day in a dark dew chamber followed by two to three days in a lighted dew chamber at 20° C.) to permit spores to germinate and infect the leaf. The plants were then transferred to a greenhouse set at 20° C. for disease to develop. When disease symptoms were fully expressed on the 1st leaves of untreated plants, infection levels were assessed on a scale of 0 to 100 percent disease severity. Percent disease control was calculated using the ratio of disease severity on treated plants relative to untreated plants. Barley seedlings (variety Harrington) were propagated in soil-less Metro mix, with each pot having 8 to 12 plants, and used in the test when first leaf was fully emerged. Test plants were inoculated by an aqueous spore suspension of Rhyncosporium secalis 24 hr after fungicide treatments. After inoculation the plants were kept in a dew room at 20° C. with 100% relative humidity for 48 hr. The plants were then transferred to a greenhouse set at 20° C. for disease to develop. Fungicide formulation, application and disease assessment on the sprayed leaves followed the procedures as described in the Example A.

[2] = system: Alternaria solani; assay: Tomato Early Blight (ALTESO) disease control; conditions: Alternaria solani, topical, 24 h, 1 Day Protectant, read-out: Disease Control ALTESO 1 DP
Method: Technical grades of materials were dissolved in acetone, which were then mixed with nine volumes of water containing 110 ppm Triton X-100. The fungicide solutions were applied onto wheat seedlings using an automated booth sprayer to run-off. All sprayed plants were allowed to air dry prior to further handling. All fungicides were evaluated using the aforementioned method for their activity vs. all target diseases. Wheat leaf blotch and brown rust activity were also evaluated using track spray applications, in which case the fungicides were formulated as EC formulations, containing 0.1% Trycol 5941 in the spray solutions. Wheat plants (variety Yuma) were grown from seed in a greenhouse in 50% mineral soil/50% soil-less Metro mix until the first leaf was fully emerged, with 7-10 seedlings per pot. These plants were inoculated with an aqueous spore suspension of Septoria tritici either prior to or after fungicide treatments. After inoculation the plants were kept in 100% relative humidity (one day in a dark dew chamber followed by two to three days in a lighted dew chamber at 20° C.) to permit spores to germinate and infect the leaf. The plants were then transferred to a greenhouse set at 20° C. for disease to develop. When disease symptoms were fully expressed on the 1st leaves of untreated plants, infection levels were assessed on a scale of 0 to 100 percent disease severity. Percent disease control was calculated using the ratio of disease severity on treated plants relative to untreated plants. Tomato plants (variety Outdoor girl) were propagated in soil-less Metro mix, with each pot having one plant, and used when 12 to 14 days old. Test plants were inoculated with an aqueous spore suspension of Alternaria solani 24 hr after fungicide treatments. After inoculation the plants were kept in 100% relative humidity (one day in a dark dew chamber followed by two to three days in a lighted dew chamber at 20° C.) to permit spores to germinate and infect the leaf. The plants were then transferred to a growth room at 22° C. for disease to develop. Fungicide formulation, application and disease assessment on the sprayed leaves followed the procedures as described in the Example A.

[3] = system: Erysiphe cichoracearum; assay: Powdery Mildew of Cucumber (ERYSCI) disease control; conditions: Golovinomyces cichoracearum, topical, 24 h, 1 Day Protectant, read-out: Disease Control ERYSCI 1 DP
Method: Technical grades of materials were dissolved in acetone, which were then mixed with nine volumes of water containing 110 ppm Triton X-100. The fungicide solutions were applied onto wheat seedlings using an automated booth sprayer to run-off. All sprayed plants were allowed to air dry prior to further handling. All fungicides were evaluated using the aforementioned method for their activity vs. all target diseases. Wheat leaf blotch and brown rust activity were also evaluated using track spray applications, in which case the fungicides were formulated as EC formulations, containing 0.1% Trycol 5941 in the spray solutions. Wheat plants (variety Yuma) were grown from seed in a greenhouse in 50% mineral soil/50% soil-less Metro mix until the first leaf was fully emerged, with 7-10 seedlings per pot. These plants were inoculated with an aqueous spore suspension of Septoria tritici either prior to or after fungicide treatments. After inoculation the plants were kept in 100% relative humidity (one day in a dark dew chamber followed by two to three days in a lighted dew chamber at 20° C.) to permit spores to germinate and infect the leaf. The plants were then transferred to a greenhouse set at 20° C. for disease to develop. When disease symptoms were fully expressed on the 1st leaves of untreated plants, infection levels were assessed on a scale of 0 to 100 percent disease severity. Percent disease control was calculated using the ratio of disease severity on treated plants relative to untreated plants. Cucumber seedlings (variety Bush Pickle) were grown in soil-less Metro mix, with one plant per pot, and used in the test when 12 to 14 days old. Plants were inoculated with a spore suspension 24 hr following fungicide treatments. After inoculation the plants remained in the greenhouse set at 20° C. until disease was fully expressed. Fungicide formulation, application and disease assessment on the sprayed leaves followed the procedures as described in the Example A.

[4] = system: Magnaporthe grisea; Anamorph: Pyricularia oryzae; assay: whole plant or invertebrate; conditions: Pyricularia oryzae, topical, 24 h, read-out: Disease Control PYRIOR 1 DP

SMILES	pest or weed control at 100 ppm [1] [%]	pest or weed control at 100 ppm [2] [%]	pest or weed control at 100 ppm [3] [%]	pest or weed control at 100 ppm [4] [%]
COc1ccnc(C(=O)N[C@H]2CCC[C@H](Cc3ccccc3)[C@@H](OCC(C)C)[C@H](C)OC2=O)c1OCOC(C)=O [Compound F106]	80 to 100	80 to 100	80 to 100	80 to 100
COc1ccnc(C(=O)N[C@H]2CCC[C@H](Cc3ccccc3)[C@@H](OCC3CC3)[C@H](C)OC2=O)c1OCOC(C)=O [Compound F107]	80 to 100	80 to 100	80 to 100	80 to 100
CCCO[C@@H]1[C@@H](Cc2ccccc2)CCC[C@H](NC(=O)c2nccc(OC)c2OCOC(C)=O)C(=O)O[C@H]1C [Compound F109]	80 to 100	80 to 100	80 to 100	80 to 100
COc1ccnc(C(=O)N[C@H]2CCC[C@H](CC3CCCCC3)[C@@H](OCC(C)C)[C@H](C)OC2=O)c1OCOC(C)=O [Compound F113]	80 to 100	80 to 100	80 to 100	80 to 100
COc1ccnc(C(=O)N[C@H]2CCC[C@H](CC3CCCC3)[C@@H](OCC3CC3)[C@H](C)OC2=O)c1OCOC(C)=O [Compound F117]	80 to 100	80 to 100	80 to 100	80 to 100
COc1ccc(C[C@H]2CCC[C@H](NC(=O)c3nccc(OC)c3OCOC(C)=O)C(=O)O[C@@H](C)[C@@H]2OCC(C)C)cc1 [Compound F118]	80 to 100	0 to 80	0 to 80	80 to 100
CCCO[C@@H]1[C@@H](Cc2ccc(OC)cc2)CCC[C@H](NC(=O)c2nccc(OC)c2OCOC(C)=O)C(=O)O[C@H]1C [Compound F119]	80 to 100	0 to 80	80 to 100	80 to 100
COc1ccnc(C(=O)N[C@H]2CCC[C@H](Cc3ccc(C)cc3)[C@@H](OCC(C)C)[C@H](C)OC2=O)c1OCOC(C)=O [Compound F126]	80 to 100	0 to 80	80 to 100	80 to 100
COc1ccnc(C(=O)N[C@H]2CCC[C@H](CCF)[C@@H](OCC(C)C)[C@H](C)OC2=O)c1OCOC(C)=O [Compound F128, ((2-(((3S,7R,8R,9S)-7-(2-fluoroethyl)-8-isobutoxy-9-methyl-2-oxooxonan-3-yl)carbamoyl)-4-methoxypyridin-3-yl)oxy)methyl acetate]	0 to 80	80 to 100	0 to 80	80 to 100
COCC[C@H]1CCC[C@H](NC(=O)c2nccc(OC)c2OCOC(C)=O)C(=O)O[C@@H](C)[C@@H]1Oc1ccccc1 [Compound F130]	80 to 100	0 to 80	0 to 80	80 to 100
COc1ccnc(C(=O)N[C@H]2CCC[C@H](Cc3ccccc3)[C@@H](OCC3CC3)[C@H](C)OC2=O)c1OCOC(=O)C(C)C [Compound F152]	80 to 100	80 to 100	80 to 100	80 to 100
CCCO[C@@H]1[C@@H](CCC(C)C)CCC[C@H](NC(=O)c2nccc(OC)c2OCOC(=O)COCC)C(=O)O[C@H]1C [Compound F161]	80 to 100	80 to 100	80 to 100	80 to 100
CCOCC(=O)OCOc1c(OC)ccnc1C(=O)N[C@H]1CCC[C@H](Cc2ccc(F)cc2)[C@@H](OCC2CC2)[C@H](C)OC1=O [Compound F164]	80 to 100	80 to 100	80 to 100	80 to 100
CCCO[C@@H]1[C@@H](Cc2ccc(F)cc2)CCC[C@H](NC(=O)c2nccc(OC)c2OCOC(=O)COCC)C(=O)O[C@H]1C [Compound F167]	80 to 100	80 to 100	80 to 100	80 to 100
CCOCC(=O)OCOc1c(OC)ccnc1C(=O)N[C@H]1CCC[C@H](Cc2ccccc2)[C@@H](OCC(C)C)[C@H](C)OC1=O [Compound F172]	80 to 100	80 to 100	80 to 100	80 to 100
CCOCC(=O)OCOc1c(OC)ccnc1C(=O)N[C@H]1CCC[C@H](Cc2ccccc2)[C@@H](OCC2CC2)[C@H](C)OC1=O [Compound F173]	80 to 100	80 to 100	80 to 100	80 to 100
CCCO[C@@H]1[C@@H](Cc2ccccc2)CCC[C@H](NC(=O)c2nccc(OC)c2OCOC(=O)COCC)C(=O)O[C@H]1C [Compound F174]	80 to 100	80 to 100	80 to 100	80 to 100
CCOCC(=O)OCOc1c(OC)ccnc1C(=O)N[C@H]1CCC[C@H](CC2CCCCC2)[C@@H](OCC(C)C)[C@H](C)OC1=O [Compound F175]	80 to 100	80 to 100	0 to 80	80 to 100
CCOCC(=O)OCOc1c(OC)ccnc1C(=O)N[C@H]1CCC[C@H](CCF)[C@@H](OCC(C)C)[C@H](C)OC1=O [Compound F181]	0 to 80	80 to 100	0 to 80	80 to 100
CCOCC(=O)OCOc1c(OC)ccnc1C(=O)N[C@H]1CCC[C@H](CCOC)[C@@H](Oc2ccccc2)[C@H](C)OC1=O [Compound F183]	80 to 100	0 to 80	0 to 80	80 to 100
CCCO[C@@H]1[C@@H](Cc2ccccc2)CCC[C@H](NC(=O)c2nccc(OC)c2OC(=O)CCOC)C(=O)O[C@H]1C [Compound F198]	80 to 100	80 to 100	80 to 100	80 to 100
